In US20150105252A1, “SUBSTITUTED PYRAZOLES AS HERBICIDES” (E I DU PONT DE NEMOURS AND COMPANY, priority 2013, published 2015):

Tests used:
blackgrass = experiment: Test C postemergence; assay type: in vivo, Alopecurus myosuroides; details: for Plant response rating (scale of 0 to 100 where 0 is no effect and 100 is complete control), Blackgrass: 31 g ai/ha, visually evaluated after 13 to 15 days; for Blackgrass plant response rating / Plant response rating, Blackgrass: postemergence; for Blackgrass plant response rating: 62 g ai/ha, scale 0 to 100
From the text: (§1) Seeds of plant species selected from blackgrass (Alopecurus myosuroides), ryegrass, Italian (Italian ryegrass, Lolium multiflorum), wheat (winter wheat, Triticum aestivum), galium (catchweed bedstraw, Galium aparine), corn (Zea mays), crabgrass, large (large crabgrass, Digitaria sanguinalis), foxtail, giant (giant foxtail, Setaria faberii), johnsongrass (Sorghum halepense), lambsquarters (Chenopodium album), morningglory (Ipomoea coccinea), nutsedge, yellow (yellow nutsedge, Cyperus esculentus), pigweed (redroot pigweed, Amaranthus retroflexus), ragweed (common ragweed, Ambrosia elation), soybean (Glycine max), barnyardgrass (Echinochloa crus-galli), oilseed rape (Brassica napus), waterhemp (common waterhemp, Amaranthus rudis), oat, wild (wild oat, Avena fatua), kochia (Kochia scoparia), Surinam grass (Brachiaria decumbens), foxtail, green (green foxtail, Setaria viridis), goosegrass (Eleusine indica), bromegrass, downy (downy bromegrass, Bromus tectorum), nightshade (eastern black nightshade, Solanum ptycanthum), cocklebur (common cocklebur, Xanthium strumarium), cupgrass, woolly (woolly cupgrass, Eriochloa villosa), bermudagrass (Cynodon dactylon), sunflower, (common oilseed sunflower, Helianthus annuus), Russian thistle (Salsola kali), and velvetleaf (Abutilon theophrasti) were planted into a blend of loam soil and sand and treated preemergence with test chemicals formulated in a non-phytotoxic solvent mixture which included a surfactant.
(§2) At the same time, plants selected from these crop and weed species and also chickweed (common chickweed, Stellaria media), canarygrass (littleseed canarygrass, Phalaris minor), and deadnettle (henbit deadnettle, Lamium amplexicaule), were planted in pots containing Redi-Earth® planting medium (Scotts Company, 14111 Scottslawn Road, Marysville, Ohio 43041) comprising spaghnum peat moss, vermiculite, wetting agent and starter nutrients and treated with postemergence applications of test chemicals formulated in the same manner. Plants ranged in height from 2 to 18 cm (1- to 4-leaf stage) for postemergence treatments. Treated plants and controls were maintained in a greenhouse for 13 to 15 days, after which time all species were compared to controls and visually evaluated. Plant response ratings, summarized in Table C, are based on a scale of 0 to 100 where 0 is no effect and 100 is complete control. A dash (-) response means no test result.

crabgrass, large = experiment: Test C postemergence; assay type: in vivo, Digitaria sanguinalis; details: for Plant response rating (scale of 0 to 100 where 0 is no effect and 100 is complete control), Crabgrass, Large: 31 g ai/ha, visually evaluated after 13 to 15 days; for Crabgrass, Large plant response rating / Plant response rating, Crabgrass, Large: postemergence; for Crabgrass, Large plant response rating: 62 g ai/ha, scale 0 to 100
Procedure, shortened: (§3)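 Visual control ratings on a 0–100 scale (100 = complete control) made against untreated controls after 13 to 15 days in greenhouse. Compounds applied in surfactant-containing solvent mixture, either preemergence to loam/sand-sown seeds or postemergence to 1- to 4-leaf plants (2–18 cm) in peat medium.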

johnsongrass [1] = experiment: Test C postemergence; assay type: in vivo, Sorghum halepense; details: for Plant response rating (scale of 0 to 100 where 0 is no effect and 100 is complete control), Johnsongrass: 31 g ai/ha, visually evaluated after 13 to 15 days
Procedure, shortened: as §3

waterhemp = experiment: Test C postemergence; assay type: in vivo, Amaranthus rudis; details: for Plant response rating (scale of 0 to 100 where 0 is no effect and 100 is complete control), Waterhemp: 31 g ai/ha, visually evaluated after 13 to 15 days; for Waterhemp plant response rating / Plant response rating, Waterhemp: postemergence; for Waterhemp plant response rating: 62 g ai/ha, scale 0 to 100
From the text: as §1, §2

oilseed rape = experiment: Test C postemergence; assay type: in vivo, Brassica napus; details: for Plant response rating (scale of 0 to 100 where 0 is no effect and 100 is complete control), Oilseed Rape: 31 g ai/ha, visually evaluated after 13 to 15 days; for Oilseed Rape plant response rating / Plant response rating, Oilseed Rape: postemergence; for Oilseed Rape plant response rating: 62 g ai/ha, scale 0 to 100
From the text: as §1, §2

pigweed [2] = experiment: Test C preemergence; assay type: in vivo, Amaranthus retroflexus
Procedure, shortened: as §3

wheat = experiment: Test A preemergence; assay type: in vivo, Triticum aestivum; details: preemergence
Procedure, shortened: (§4)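 Visual injury rating, 0–100 (0 no effect, 100 complete control), vs untreated controls ~10 days after treatment in greenhouse. Pre: directed soil spray on seeded loam/sand. Post: 2–10 cm plants, 1–2 leaf stage. Formulation: non-phytotoxic solvent mix + surfactant.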

pigweed [3] = experiment: Test A preemergence; assay type: in vivo, Amaranthus retroflexus
Procedure, shortened: as §4

velvetleaf = experiment: Test A preemergence; assay type: in vivo, Abutilon theophrasti
Procedure, shortened: as §4

johnsongrass [4] = experiment: Test C preemergence; assay type: in vivo, Sorghum halepense; details: for Johnsongrass plant response rating: preemergence
Procedure, shortened: as §3

barnyardgrass = experiment: Test B flood; assay type: in vivo, Echinochloa crus-galli; details: 250 g ai/ha, visual rating on 0 to 100 scale (0 no effect, 100 complete control), 13 to 15 days
Procedure, shortened: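 Each compound is applied to the floodwater of pots holding 2-leaf seedlings, water standing 3 cm over the soil throughout. Plants stay in a greenhouse 13 to 15 days before visual scoring against controls from 0 (no effect) to 100 (complete control).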

foxtail, giant = experiment: Test A preemergence; assay type: in vivo, Setaria faberii
Procedure, shortened: as §4

[5] = 125 g ai/ha, scale 0 to 100, 0 no effect, 100 complete control
[6] = postemergence, 125 g ai/ha, scale 0 to 100, 0 no effect, 100 complete control
[7] = Preemergence, 16 g ai/ha, scale 0 to 100
[8] = preemergence, 125 g ai/ha, scale 0 to 100, 0 is no effect, 100 is complete control
[9] = 125 g ai/ha, visual injury, 0 to 100 scale, approx. 10 days
[10] = 500 g ai/ha, visual injury after approx. 10 days, 0 to 100 scale (0 no effect, 100 complete control)
[11] = Preemergence, 500 g ai/ha, 0 to 100 scale, 0 no effect, 100 complete control
[12] = preemergence, 125 g ai/ha, visual injury, 0 to 100 scale, approx. 10 days
[13] = 125 g ai/ha, scale 0 to 100, 0 is no effect, 100 is complete control
[14] = 250 g ai/ha, scale 0 to 100 (0 no effect, 100 complete control)
[15] = preemergence, 500 g ai/ha, visual injury after approx. 10 days, 0 to 100 scale (0 no effect, 100 complete control)

Row | Compound | Plant response rating (scale of 0 to 100 where 0 is no effect and 100 is complete control), Blackgrass (blackgrass; Postemergence) | Blackgrass plant response rating (blackgrass) | Plant response rating, Blackgrass (blackgrass; [5]) | Plant response rating (scale of 0 to 100 where 0 is no effect and 100 is complete control), Crabgrass, Large (crabgrass, large; Postemergence) | Crabgrass, Large plant response rating (crabgrass, large) | Plant response rating (scale of 0 to 100 where 0 is no effect and 100 is complete control), Johnsongrass (johnsongrass [1]; Postemergence) | Plant response rating, Johnsongrass (johnsongrass [1]; [6]) | Plant response rating (scale of 0 to 100 where 0 is no effect and 100 is complete control), Waterhemp (waterhemp; Postemergence) | Waterhemp plant response rating (waterhemp) | Plant response rating, Waterhemp (waterhemp; [5]) | Plant response rating (scale of 0 to 100 where 0 is no effect and 100 is complete control), Oilseed Rape (oilseed rape; Postemergence) | Oilseed Rape plant response rating (oilseed rape) | Plant response rating, Oilseed Rape (oilseed rape; [5]) | Pigweed plant response rating (pigweed [2]; [8]) | Wheat plant response rating (wheat; [9]) | Wheat plant response rating (wheat; [10]) | Pigweed plant response rating (pigweed [3]; [12]) | Velvetleaf plant response rating (velvetleaf; [12]) | Johnsongrass plant response rating (johnsongrass [4]; [13]) | Plant response rating, Barnyardgrass (barnyardgrass) | other results
1 | CCONC(=O)c1cc(CC)n(Cc2ccnc(C(F)(F)F)c2)n1 [Compound 77] | 5 | 5 | 5 | 10 | 10 | 5 | 5 | 10 | 10 | 65 | 5 | 5 | 15 | 100 | 20 | 40 | 100 | 20 | 70 | 0 | Plant response rating (scale of 0 to 100), Blackgrass (blackgrass; Postemergence, 16 g ai/ha): 0; Plant response rating (scale of 0 to 100), Crabgrass, Large (crabgrass, large; Postemergence, 16 g ai/ha): 5; Plant response rating, Crabgrass, Large (crabgrass, large; [5]): 20; Plant response rating (scale of 0 to 100), Johnsongrass (johnsongrass [1]; Postemergence, 16 g ai/ha): 5; Johnsongrass plant response rating (johnsongrass [1]; postemergence, 62 g ai/ha, scale 0 to 100): 5; Plant response rating (scale of 0 to 100), Waterhemp (waterhemp; Postemergence, 16 g ai/ha): 10; Plant response rating (scale of 0 to 100), Oilseed Rape (oilseed rape; Postemergence, 16 g ai/ha): 5; Plant response rating, Pigweed (pigweed [2]; [7]): 70; Pigweed plant response rating (pigweed [2]; preemergence, 31 g ai/ha, scale 0 to 100 (0 no effect, 100 complete control), 13 to 15 days): 100; Plant response rating, Pigweed (pigweed [2]; preemergence, 62 g ai/ha, 13 to 15 days, scale 0 to 100, 0 = no effect, 100 = complete control): 100; Pigweed plant response rating (pigweed [3]; [11]): 100; Velvetleaf plant response rating (velvetleaf; [11]): 80; Plant response rating, Johnsongrass (johnsongrass [4]; [7]): 10; Johnsongrass plant response rating (johnsongrass [4]; 31 g ai/ha, scale 0 to 100 (0 no effect, 100 complete control), 13 to 15 days): 45; Foxtail, Giant plant response rating (foxtail, giant; [11]): 100; Foxtail, Giant plant response rating (foxtail, giant; [12]): 100
2 | CCc1cc(-c2ccc(C(F)(F)F)cc2)nn1Cc1ccnc(C(F)(F)F)c1 [Compound 110] | 30 | 35 | 45 | 35 | 40 | 40 | 75 | 100 | 100 | 100 | 60 | 85 | 90 | 100 | 80 | 100 | 100 | 90 | 80 | 30 | Plant response rating, Blackgrass (blackgrass; [14]): 60; Plant response rating, Crabgrass, Large (crabgrass, large; [14]): 60; Plant response rating, Johnsongrass (johnsongrass [1]; postemergence, 250 g ai/ha, scale 0 to 100 (0 no effect, 100 complete control)): 90; Plant response rating, Waterhemp (waterhemp; [14]): 100; Plant response rating, Oilseed Rape (oilseed rape; [14]): 90; Plant response rating (scale of 0 to 100), Pigweed (pigweed [2]; Preemergence, 250 g ai/ha): 100; Pigweed plant response rating (pigweed [2]; preemergence, 31 g ai/ha, visual rating, scale 0 to 100 (0 no effect, 100 complete control), 13 to 15 days): 95; Pigweed plant response rating (pigweed [2]; preemergence, 62 g ai/ha, scale 0 to 100 (0 no effect, 100 complete control), 13 to 15 days): 100; Pigweed plant response rating (pigweed [3]; [15]): 100; Velvetleaf plant response rating (velvetleaf; [15]): 100; Plant response rating (scale of 0 to 100), Johnsongrass (johnsongrass [4]; Preemergence, 250 g ai/ha): 95; Johnsongrass plant response rating (johnsongrass [4]; 31 g ai/ha, visual rating, scale 0 to 100 (0 no effect, 100 complete control), 13 to 15 days): 15; Johnsongrass plant response rating (johnsongrass [4]; 62 g ai/ha, scale 0 to 100 (0 no effect, 100 complete control), 13 to 15 days): 30; Foxtail, Giant plant response rating (foxtail, giant; [12]): 100; Foxtail, Giant plant response rating (foxtail, giant; [15]): 100
